# Results reported in patent publication US4925930A, “Synthesis and anti-leukemic activity of alkyl-1-(β-D-ribofuranosyl)[1,2,4]triazole-3-carboximidates” (Nucleic Acid Research Institute, priority 1988, dated 1990).
# Several values for one entry are separate records, joined by “and”; a condition that tells them apart may be missing. Equal entries are not always repeated. Where two headings read alike, the source gives them in different places.
# What was measured:
# HIV = conditions: human T lymphocytes; 50 μg/mL; cited from earlier work
# murine leukemia L1210 = assay: in vivo; assay type: in vivo; conditions: for Residual Cell Population After Last Treatment: calculated from inoculum response data; for antitumor activity in vivo: summary, as per Examples 6 and 7 (L1210 and Friend leukemia)
# From the text: (§1) In Vivo assessments of therapeutic efficacy and host toxicity with murine leukemia L1210 were made as detailed in M. Kuehl; D. I. Brixner; A. D. Broom; T. L. Avery; R. L. Blakley, Cancer Res., 1988, 48, 1481.
# (§2) ^b Treatment responses (6 mice/treatment group) presented as % T/C
# (§3) ^c Calculations of residual leukemic cell populations were made using
# (§4) ^a Except where otherwise indicated, all solutions were delivered ip
# visna = assay type: cell-based; conditions: cell culture
# [1] = in water; for maximum dosage which could be delivered as a single bolus (maximum soluble dosage): 0.01 ml/gram mouse weight
# viruses = assay: Cell culture antiviral activity (general statement); assay type: cell-based
# [2] = test system: L1210 murine lymphocytic leukemia; assay: In vitro cytotoxicity / growth inhibition of L1210 murine lymphocytic leukemia; assay type: cell-based; conditions: for in vitro growth inhibition: L1210, in vitro cell culture; for cytotoxicity for L1210 cells: cells growing in vitro
# [3] = test system: herpes simplex type 2 viruses; assay type: cell-based; conditions: cell culture
# adeno type 2 = assay type: cell-based; conditions: cell culture
# [4] = test system: WI-L2 human B lymphoblastic leukemia; assay: In vitro growth inhibition of WI-L2; assay type: cell-based; conditions: in vitro cell culture
# Procedure: (§5) Compounds (4)and (5) were also tested in vitro for their capacity to inhibit the growth of L1210 murine lymphocytic leukemia, WI-L2 human B lymphoblastic leukemia, and CCRF-CEM human T lymphoblastic leukemia in vitro.
# semliki forest = assay type: cell-based; conditions: cell culture
# rhino A = assay type: cell-based; conditions: cell culture
# influenza A = assay type: cell-based
# parainfluenza type 3 = assay type: cell-based; conditions: cell culture
# [5] = test system: CCRF-CEM human T lymphoblastic leukemia; assay: In vitro growth inhibition of CCRF-CEM; assay type: cell-based; conditions: in vitro cell culture
# Procedure: as §5
# Friend leukemia = conditions: for Spleen Weight / tox (in Spleen Weight column): day 1,3,5,7,9,11, ip; for Spleen Weight: control w/tumor 1538 ± 561, wo/tumor 82 ± 11; for Friend leukemia-related splenomegaly diminished: nontoxic dosing
# in vivo = assay type: in vivo; conditions: mouse, in vivo, ip, read-out: maximum non-lethal dosage
# From the text: as §1, §2, §3, §4
# [6] = bid, day 1,3,5,7, 480 mg/kg, ip
# [7] = qd, day 1-7, 480 mg/kg, ip, 480 mg/kg
# [8] = qd, day 1, 480 mg/kg, ip, 480 mg/kg
smiles,measurement,setting,value
"NC(=O)c1ncn([C@@H]2O[C@H](CO)[C@@H](O)[C@H]2O)n1 [ribavirin, 1-(β-D-ribofuranosyl)-[1,2,4]triazole-3-carboxamide]",inhibition of HIV replication,HIV,inhibits the replication
"COC(=N)c1ncn([C@@H]2O[C@H](CO)[C@@H](O)[C@H]2O)n1 [Compound (4), Methyl-1-(β-D-ribofuranosyl)[1,2,4]triazole-3-carboximidate]",Postinoculation Lifespan (% T/C),murine leukemia L1210; [6],162 % T/C
same,Residual Cell Population After Last Treatment,murine leukemia L1210; [6],12 % of control
same,Postinoculation Lifespan (% T/C),"murine leukemia L1210; bid, day 1-7, 480 mg/kg, ip",101 % T/C
same,Postinoculation Lifespan (% T/C),"murine leukemia L1210; bid, day 1, 480 mg/kg, ip",125 % T/C
same,Residual Cell Population After Last Treatment,"murine leukemia L1210; bid, day 1, 480 mg/kg, ip",9 % of control
same,T/C,"murine leukemia L1210; qd day 1, maximum soluble dosage, 480 mg/kg, repeated",≈ 115
same,Postinoculation Lifespan (% T/C),"murine leukemia L1210; qd, day 1,3,5,7, 480 mg/kg, ip",121 % T/C
same,Residual Cell Population After Last Treatment,"murine leukemia L1210; qd, day 1,3,5,7, 480 mg/kg, ip",46 % of control
same,Postinoculation Lifespan (% T/C),"murine leukemia L1210; qd, day 1,4,7, 480 mg/kg, ip",119 % T/C
same,Residual Cell Population After Last Treatment,"murine leukemia L1210; qd, day 1,4,7, 480 mg/kg, ip",73 % of control
same,Postinoculation Lifespan (% T/C),murine leukemia L1210; [7],162 % T/C and 142 % T/C
same,Residual Cell Population After Last Treatment,murine leukemia L1210; [7],12 % of control and 7 % of control
same,Postinoculation Lifespan (% T/C),"murine leukemia L1210; qd, day 1-7, 480 mg/kg, po",97 % T/C
same,Residual Cell Population After Last Treatment,"murine leukemia L1210; qd, day 1-7, 480 mg/kg, po",139 % of control
same,Postinoculation Lifespan (% T/C),murine leukemia L1210; [8],113 % T/C and 114 % T/C and 116 % T/C
same,Residual Cell Population After Last Treatment,murine leukemia L1210; [8],32 % of control and 30 % of control and 21 % of control
same,lethal toxicity,"murine leukemia L1210; qid day 1, 480 mg/kg/injection",lethally toxic
same,Postinoculation Lifespan (% T/C),"murine leukemia L1210; qid, day 1, 480 mg/kg, ip",60 % T/C
same,antitumor activity in vivo,murine leukemia L1210,significant antitumor activity in vivo
same,T/C,"murine leukemia L1210; tid day 1, 480 mg/kg/injection",153
same,leukemic cell kill,"murine leukemia L1210; tid day 1, 480 mg/kg/injection",> 99%
same,Postinoculation Lifespan (% T/C),"murine leukemia L1210; tid, day 1,3,5,7, 480 mg/kg, ip",76 % T/C
same,Postinoculation Lifespan (% T/C),"murine leukemia L1210; tid, day 1-7, 480 mg/kg, ip",61 % T/C
same,Postinoculation Lifespan (% T/C),"murine leukemia L1210; tid, day 1, 480 mg/kg, ip",153 % T/C
same,Residual Cell Population After Last Treatment,"murine leukemia L1210; tid, day 1, 480 mg/kg, ip",0.6 % of control
same,antiviral activity,visna,inactive
same,water solubility relative to biological activity,[1],limited water solubility
same,maximum dosage which could be delivered as a single bolus (maximum soluble dosage),[1],480 mg/kg
same,cell culture antiviral activity,viruses,devoid themselves of cell culture antiviral activity
same,in vitro growth inhibition,[2],neither compound demonstrated in vitro growth inhibition
same,cytotoxicity for L1210 cells,[2],neither compound (4) nor compound (5) was cytotoxic
same,antiviral activity,[3],inactive
same,antiviral activity,adeno type 2,inactive
same,in vitro growth inhibition,[4],neither compound demonstrated in vitro growth inhibition
same,antiviral activity,semliki forest,inactive
same,antiviral activity,rhino A,inactive
same,antiviral activity,influenza A,inactive
same,antiviral activity,parainfluenza type 3,inactive
same,in vitro growth inhibition,[5],neither compound demonstrated in vitro growth inhibition
same,Spleen Weight,"Friend leukemia; bid, 288 mg/kg, P < 0.005",150 ± 53 mg
same,tox (in Spleen Weight column),"Friend leukemia; bid, 480 mg/kg",tox
same,Friend leukemia-related splenomegaly diminished,Friend leukemia,significantly diminished
same,Spleen Weight,"Friend leukemia; qd, 288 mg/kg, P < 0.02",599 ± 133 mg
same,Spleen Weight,"Friend leukemia; qd, 480 mg/kg, P < 0.01",216 ± 60 mg
"CCOC(=N)c1ncn([C@@H]2O[C@H](CO)[C@@H](O)[C@H]2O)n1 [Compound (5), Ethyl-1-(β-D-ribofuranosyl)[1,2,4]triazole-3-carboximidate]",dosage/schedule dependence of anti-L1210 activity,"murine leukemia L1210; mouse, in vivo",more dosage than schedule dependent
same,lethal toxicity for L1210-inoculated mice,"murine leukemia L1210; mouse, in vivo, 3704 mg/kg",lethally toxic
same,therapeutic efficacy,"murine leukemia L1210; qd day 1, 288 mg/kg",decline of therapeutic efficacy
same,leukemic cell kill,"murine leukemia L1210; qd day 1, 1333 mg/kg, gauged by inoculum response data",98.7%
same,T/C,"murine leukemia L1210; qd day 1, maximum non-lethal dosage, 1333 mg/kg",149
same,lethal toxicity,"murine leukemia L1210; qd days 1-7, compared with qd day 1",lethal toxicity was produced by lower dosages
same,increase in mean life span (T/C),"murine leukemia L1210; qd days 1-7, maximum non-lethal dosage, 288 mg/kg",144
same,Postinoculation Lifespan (% T/C),"murine leukemia L1210; qd, day 1-7, 288 mg/kg, ip",144 % T/C
same,Residual Cell Population After Last Treatment,"murine leukemia L1210; qd, day 1-7, 288 mg/kg, ip",1.7 % of control
same,Postinoculation Lifespan (% T/C),"murine leukemia L1210; qd, day 1-7, 480 mg/kg, ip",134 % T/C
same,Postinoculation Lifespan (% T/C),"murine leukemia L1210; qd, day 1-7, 800 mg/kg, ip",70 % T/C
same,Postinoculation Lifespan (% T/C),"murine leukemia L1210; qd, day 1, 288 mg/kg, ip",114 % T/C
same,Residual Cell Population After Last Treatment,"murine leukemia L1210; qd, day 1, 288 mg/kg, ip",27.0 % of control
same,Postinoculation Lifespan (% T/C),"murine leukemia L1210; qd, day 1, 480 mg/kg, ip",149 % T/C
same,Residual Cell Population After Last Treatment,"murine leukemia L1210; qd, day 1, 480 mg/kg, ip",1.1 % of control
same,Postinoculation Lifespan (% T/C),"murine leukemia L1210; qd, day 1, 800 mg/kg, ip, 800 mg/kg",159 % T/C and 144 % T/C
same,Postinoculation Lifespan (% T/C),"murine leukemia L1210; qd, day 1, 1333 mg/kg, ip",149 % T/C
same,Residual Cell Population After Last Treatment,"murine leukemia L1210; qd, day 1, 1333 mg/kg, ip",1.3 % of control
same,Postinoculation Lifespan (% T/C),"murine leukemia L1210; qd, day 1, 2222 mg/kg, ip",92 % T/C
same,Postinoculation Lifespan (% T/C),"murine leukemia L1210; qd, day 1, 3704 mg/kg, ip",48 % T/C
same,antitumor activity in vivo,murine leukemia L1210,significant antitumor activity in vivo
same,MTD,in vivo; qd day 1,1330 mg/kg
same,MTD,in vivo; qd days 1-7,288 mg/kg
same,antiviral activity,visna,inactive
same,maximum dosage which could be delivered as a single bolus (maximum soluble dosage),[1],3704 mg/kg
same,cell culture antiviral activity,viruses,devoid themselves of cell culture antiviral activity
same,in vitro growth inhibition,[2],neither compound demonstrated in vitro growth inhibition
same,cytotoxicity for L1210 cells,[2],neither compound (4) nor compound (5) was cytotoxic
same,antiviral activity,[3],inactive
same,antiviral activity,adeno type 2,inactive
same,in vitro growth inhibition,[4],neither compound demonstrated in vitro growth inhibition
same,antiviral activity,semliki forest,inactive
same,antiviral activity,rhino A,inactive
same,antiviral activity,influenza A,inactive
same,antiviral activity,parainfluenza type 3,inactive
same,in vitro growth inhibition,[5],neither compound demonstrated in vitro growth inhibition
same,Friend leukemia-related splenomegaly diminished,Friend leukemia,not
same,Spleen Weight,"Friend leukemia; qd, 480 mg/kg",1257 ± 185 mg
same,tox (in Spleen Weight column),"Friend leukemia; qd, 800 mg/kg",tox
same,tox (in Spleen Weight column),"Friend leukemia; qd, 1333 mg/kg",tox
